From patent US20240391945A1, “NUCLEIC ACID SYNTHESIS METHOD USING SEGMENT-TYPE AMIDITE” (NITTO DENKO CORPORATION, priority 2020, published 2024)

Experiment: pKa values in water of the activators
Assay type: physicochemical
Conditions: for pKa: read-out: pKa in H2O

Row | pKa | Compound | pKa in H2O
1 | 3.86 | Cn1nnnc1S [Activator 1-Me-MCT, 5-mercapto-1-methyltetrazole] | –
2 | 3.65 | Sc1nnnn1-c1ccccc1 [Activator 1-Ph-MCT, 5-mercapto-1-phenyltetrazole] | –
3 | 4.1 | c1ccc(CSc2nnn[nH]2)cc1 [BTT, 5-benzylthiotetrazole] | –
4 | – | saccharin 1-methylimidazole [SMI] | 7
5 | 4.3 | CCSc1nnn[nH]1 [ETT, 5-ethylthio-1H-tetrazole] | –
